Key:
[1] = system: twenty clinical isolates of P. aeruginosa; assay: Combined antibiotic / polyamino-isoprenic derivative on MH agar plates, clinical isolates; type: cell-based, Pseudomonas aeruginosa
Protocol: MH agar plates were prepared, containing 2 mg/L doxycycline and 2 mg/L doxycycline in combination with compounds at a concentration of 10 μM. Bacteria, 5 μL of a suspension of each clinical isolate adjusted to 5 x 10^5 colony-forming units per ml were spotted on each plate and growth was monitored after a 18 h period of incubation at 37°C.
PA01 is a well-studied reference strain of P. aeruginosa, however to extend our study we considered strains recently isolated from hospitalized patients. Thus, we decided to test this combination of doxycycline (2mg/L) with polyamino-isoprenic compounds (10 μM) on twenty clinical isolates recently isolated from the HIA-Laveran (see M&M section and S1 Table).

P. aeruginosa PA01 = assay: Comparison of efficiency between compounds and PAßN (compound gradient with 2 mg/L doxycycline); type: cell-based, Pseudomonas aeruginosa; conditions: for concentration needed to inhibit growth in the presence of doxycycline: PA01, doxycycline 2 mg/L, 18 h
Protocol: Serial dilutions of each compound (from 270 μM to 0.95 μM for PAßN and from 135 μM to 0.06 μM for 3) were prepared in microplates. Doxycycline (2 mg/L) was then added to each well before inoculation of bacteria (5x10^5 cfu/mL). Optical density (600 nm) was measured after 18 hours at 37°C. Only the relevant part of the graphs are shown. Experiments were performed in triplicate.
First, we performed a checkerboard assay to analyze the synergy between doxycycline and the polyamino-isoprenic compound and between doxycycline and PAβN. For both, compound 3 and PAβN we observed a synergistic inhibition of growth when combined with doxycycline with a FIC Index of 0.09 (S2 Table). […] PAßN is generally used at a concentration greater than 10 μM to inhibit the resistance of P. aeruginosa with respect to various antibiotics, and, to our knowledge, no data have been reported in the literature on its use in combination with doxycycline. The percentage of growth inhibition was monitored as a function of compound concentration, and the results are presented in Fig 3.

[2] = system: outer membrane of P. aeruginosa PA01; assay: Outer membrane permeation assay (nitrocefin hydrolysis)
Protocol: An overnight culture of PA01 was diluted 100-fold into 10 ml MHII broth containing 0.01 μg/ml of imipenem to induce a higher level of β-lactamases. […] Absorbance at 490 nm was monitored by spectrophotometry using an Infinite M200 microplate reader (Tecan) over 60 min. Experiments were performed in triplicate.

[3] = chloramphenicol 4 mg/L + compound 10 μM

For `CC(C)=CCCC(C)=CCCC(C)=CCNCCCNCCCCNCCCN` [Compound 3], the clinical isolates resistant [1, 3] was 25%, the “clinical isolates resistant (number of 20)” value [1, 3] was 5 and the “clinical isolates whose growth was impaired” value [1, 3] was 75%. For the same compound, the “clinical isolates whose growth was impaired (number of 20)” value ([1]; chloramphenicol 4 mg/L + compound 10 μM, data not shown) was 15, the “MIC ratio (doxycycline)” value ([1]; clinical isolates, with compound) was 32 and the “isolates with doxycycline susceptibility restored” value ([1]; doxycycline 2 mg/L + compound 10 μM, 20 clinical isolates) was “total susceptibility of all the considered isolates”. The “concentration needed to inhibit growth in the presence of doxycycline” value (P. aeruginosa PA01) was ~1.22 mg/L, the “concentration needed to inhibit growth in the presence of doxycycline” value (P. aeruginosa PA01; graphically determined on Fig 3) was “approximately 3 μM” and the “potency in comparison with PAßN” value (P. aeruginosa PA01; adjuvant of doxycycline) was “approximately 10 times”. For the same compound, the “outer membrane permeation efficacy” value ([2]; compound at 15.6μM, p value ≤ 0.05) was “significantly identical to 31.25μM of PMBN” and the “outer membrane permeation activity” value ([2]; compound at 31.25μM, relative to 250 μM polymyxin-B) was 10%.

Source: publication PMC4859512, “Polyamino-Isoprenic Derivatives Block Intrinsic Resistance of P. aeruginosa to Doxycycline and Chloramphenicol In Vitro” (PLoS ONE, 2016)
